The values that follow come from patent publication US9120804B2, “8-substituted 2-amino-[1,2,4] triazolo [1, 5-A] pyrazines as Syk tryrosine kinase inhibitors and GCN2 serin kinase inhibitors” (Merck Patent GmbH, priority 2012, dated 2015).

Usually IC50 stands for the concentration that inhibits the measured activity by half. A lower IC50 goes with greater potency in that assay.

The target in the assay is T1, SYK (Homo sapiens, UniProt P43405).
T1 construct: 2.5 nM SYK, 400 nM Biotin-Aha-Aha-KEDPDYEWPSAKK
Briefly: SYK flash plate assay (enzyme assay). It counts as biochemical. In short, it runs like this:
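Radiometric Flashplate format: biotinylated peptide substrate (400 nM) and 33P-labelled ATP (10 μM) react with 2.5 nM enzyme for 1 hour at 30 °C in Hepes buffer, pH 7.5. After EDTA quench and washing, counts are taken; staurosporine defines non-specific signal, and IC50 values are derived.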
On to `CC1(C)C(=O)Nc2cc(Nc3nc4c(N5CCCNCC5)nccn4n3)ccc21` [E68, 6-(8-[1,4]diazepan-1-yl-[1,2,4]triazolo[1,5-a]pyrazin-2-ylamino)-3,3-dimethyl-1,3-dihydro-indol-2-one], for which the IC50 was < 100 nM.

On to `CC1(C)C(=O)Nc2cc(Nc3nc4c(N5CCCCC5)nccn4n3)ccc21` [E69, 3,3-dimethyl-6-(8-piperidin-1-yl-[1,2,4]triazolo[1,5-a]pyrazin-2-ylamino)-1,3-dihydro-indol-2-one], for which the IC50 was < 100 nM.

With `CC1(C)C(=O)Nc2cc(Nc3nc4c(N5CCC(O)(C(F)(F)F)CC5)nccn4n3)ccc21` [E70, 6-[8-(4-hydroxy-4-trifluoromethyl-piperidin-1-yl)-[1,2,4]triazolo[1,5-a]pyrazin-2-ylamino]-3,3-dimethyl-1,3-dihydro-indol-2-one], the IC50 was < 100 nM.

As for `CC1=NC2(CCN(c3nccn4nc(Nc5ccc6c(c5)NC(=O)C6(C)C)nc34)CC2)C(=O)N1` [E71, 8-[2-(3,3-dimethyl-2-oxo-2,3-dihydro-1H-indol-6-ylamino)-[1,2,4]triazolo[1,5-a]pyrazin-8-yl]-2-methyl-1,3,8-triaza-spiro[4.5]dec-1-en-4-one], the 50% inhibitory concentration (IC50) lay in the range of 100 to 300 nM.

On to `CC1(C)C(=O)Nc2cc(Nc3nc4c(N5CCCC(=O)CC5)nccn4n3)ccc21` [E72, 3,3-dimethyl-6-[8-(4-oxo-azepan-1-yl)-[1,2,4]triazolo[1,5-a]pyrazin-2-ylamino]-1,3-dihydro-indol-2-one], for which the IC50 is < 100 nM.

Regarding `CC1(C)C(=O)Nc2cc(Nc3nc4c(N5CCc6ccccc65)nccn4n3)ccc21` [E73, 6-[8-(2,3-dihydro-indol-1-yl)-[1,2,4]triazolo[1,5-a]pyrazin-2-ylamino]-3,3-dimethyl-1,3-dihydro-indol-2-one], the IC50 is < 100 nM.

`CC1(C)C(=O)Nc2cc(Nc3nc4c(N5CCNC(=O)CC5)nccn4n3)ccc21` [E74, 3,3-dimethyl-6-[8-(5-oxo-[1,4]diazepan-1-yl)-[1,2,4]triazolo[1,5-a]pyrazin-2-ylamino]-1,3-dihydro-indol-2-one]: the IC50 was < 100 nM.

Take `CC1(C(N)=O)CCN(c2nccn3nc(Nc4ccc5c(c4)NC(=O)C5(C)C)nc23)C1` (stereo not shown) [E75, 1-[2-(3,3-dimethyl-2-oxo-2,3-dihydro-1H-indol-6-ylamino)-[1,2,4]triazolo[1,5-a]pyrazin-8-yl]-3-methyl-pyrrolidine-3-carboxylic acid amide]: the IC50 is < 100 nM.

As for `CC1(C)C(=O)Nc2cc(Nc3nc4c(-c5c[nH]c6ccccc56)nccn4n3)ccc21` [E76, 6-[8-(1H-indol-3-yl)-[1,2,4]triazolo[1,5-a]pyrazin-2-ylamino]-3,3-dimethyl-1,3-dihydro-indol-2-one], the IC50 was < 100 nM.

On to `CC1(C)CCNc2cc(Nc3nc4c(N5CCC6(CC5)CNC(=O)C6)nccn4n3)ccc21` [E77, 8-[2-(4,4-dimethyl-1,2,3,4-tetrahydro-quinolin-7-ylamino)-[1,2,4]triazolo[1,5-a]pyrazin-8-yl]-2,8-diaza-spiro[4.5]decan-3-one], for which the IC50 was < 100 nM.

With `CN1[C@@H]2CC[C@H]1C[C@@H](Nc1nccn3nc(Nc4ccc5c(c4)NC(=O)C5(C)C)nc13)C2` [E78, 3,3-dimethyl-6-[8-((1R,3R,5S)-8-methyl-8-aza-bicyclo[3.2.1]oct-3-ylamino)-[1,2,4]triazolo[1,5-a]pyrazin-2-ylamino]-1,3-dihydro-indol-2-one], the IC50 lay within 100 to 300 nM.

`CC1(C)C(=O)Nc2cc(Nc3nc4c(NCC5CCCNC5)nccn4n3)ccc21` (stereo not shown) [E79, 3,3-dimethyl-6-{8-[(piperidin-3-ylmethyl)-amino]-[1,2,4]triazolo[1,5-a]pyrazin-2-ylamino}-1,3-dihydro-indol-2-one] registered an IC50 of 300 to 3000 nM.

For the molecule `COc1ccc2c(c1)CCN2c1nccn2nc(Nc3ccc4c(c3)NC(=O)C4(C)C)nc12` [E81, 6-[8-(5-methoxy-2,3-dihydro-indol-1-yl)-[1,2,4]triazolo[1,5-a]pyrazin-2-ylamino]-3,3-dimethyl-1,3-dihydro-indol-2-one], the IC50 is < 100 nM.
